Read-outs that look alike come from different tables or passages of the source.
Assays:
[1] = system: normal L6 rat myoblasts; test: MTT cell viability assay, normal L6 cells; assay type: cell-based; conditions: mean ± SD, n = 3, read-out: Anticancer Activity IC50, L6
Method: (§1) MCF7, SW480 and normal L6 muscle cells were bought from the ATCC company, USA [34]. MCF7 and SW480 adenocarcinoma cell lines were cultured, respectively, using Dulbecco’s Modified Eagle Medium (DMEM with 4.5 g/L glucose; HIMEDIA, Mumbai, India) supplemented with 100 U/mL penicillin, 100 µg/mL of streptomycin and 10% fetal bovine serum (FBS; Cat No. FBSEU500; Tico Europe, Amstelveen, The Netherlands) under standard conditions until the desired confluency was reached. Once the desired cell confluency of 70–80% was observed, the cells were sub-cultured through trypsinization, and the cell count was calculated prior to seeding in the 96-well microplate. Similarly, L6 rat myoblasts were cultured accordingly as normal cell lines to compare against MCF7 and SW480 cell lines during the MTT cell viability assay.
(§2) Cells were seeded in a 96-well microplate at a density of 1 × 10^4 cells per well and were allowed to adhere to the wells overnight. Subsequently, the cells were treated with varying concentrations of 12 compounds (1a,b,c–4a,b,c) along with doxorubicin as the positive control. The cells were exposed to the tested substances at concentrations ranging from 50, 25, 10, 5 and 1 μM. The treatment was conducted over three periods of 24 h, 48 h and 72 h, respectively. After the treatment period, thiazolyl blue tetrazolium bromide (MTT) solution was added to each well at a concentration of 0.5 mg/mL and incubated for 3 h in a 37 °C incubator supplemented with 5% CO2. Lastly, the spent MTT medium was removed and DMSO was added to the wells, where the purple formazan crystals were solubilized, and the intensity of the purple hue was spectrophotometrically measured at 570 nm.
(§3) All values were represented as means ± standard deviations (n = 3). The data were statistically analyzed using GraphPad Prism 10.1.0, where the IC50 values of each compound treated on different cell lines at different time points were obtained by extrapolating the logarithmic dose–response curve. The IC50 values were further subjected to one-way ANOVA analysis along with the post hoc test to determine the statistical significance between the treatment groups and the negative control (untreated cells).

[2] = system: MCF7 breast cancer; test: MTT cell viability assay, MCF7; assay type: cell-based, human; conditions: for Selectivity Index (SI), MCF-7: SI = IC50 L6 / IC50 MCF-7; for IC50: mean ± SD, n = 3, read-out: Anticancer Activity IC50, MCF-7
Method: as §1
(§4) Cells were seeded in a 96-well microplate at a density of 1 × 10^4 cells per well and were allowed to adhere to the wells overnight. […] The cells were exposed to the tested substances at concentrations ranging from 50, 25, 10, 5 and 1 μM. The treatment was conducted over three periods of 24 h, 48 h and 72 h, respectively. […] Lastly, the spent MTT medium was removed and DMSO was added to the wells, where the purple formazan crystals were solubilized, and the intensity of the purple hue was spectrophotometrically measured at 570 nm.
(§5) All values were represented as means ± standard deviations (n = 3). […] The IC50 values were further subjected to one-way ANOVA analysis along with the post hoc test to determine the statistical significance between the treatment groups and the negative control (untreated cells).

[3] = system: SW480 colon cancer; test: MTT cell viability assay, SW480; assay type: cell-based, human; conditions: for IC50: mean ± SD, n = 3, read-out: Anticancer Activity IC50, SW480; for Selectivity Index (SI), SW480: SI = IC50 L6 / IC50 SW480
Method: as §1, §4, §5

[4] = system: MCF7 and SW480 cancer cells; test: MTT cell viability assay, both cancer cell lines; assay type: cell-based, human; conditions: breast cancer cell line MCF7 versus colon cancer cell line SW480
Method: as §1, §2, §3

[5] = 72 h treatment period, NA = IC50 beyond the tested concentration range (1-50 µM)
[6] = Rattus norvegicus, Myoblast, 24 h treatment period
[7] = Rattus norvegicus, Myoblast, 48 h treatment period
[8] = Rattus norvegicus, Myoblast, 72 h treatment period
[9] = Homo sapiens, MCF7, 24 h treatment period
[10] = Homo sapiens, MCF7, 48 h treatment period
[11] = Homo sapiens, SW480, 24 h treatment period
[12] = Homo sapiens, SW480, 48 h treatment period
[13] = Homo sapiens, SW480, 72 h treatment period
[14] = Homo sapiens, MCF7, 72 h treatment period, NA = IC50 beyond the tested concentration range (1-50 µM)

Row | Molecule | IC50 ([1]; 24 h treatment period) | IC50 ([1]; 48 h treatment period) | IC50 ([1]; 72 h treatment period) | Selectivity Index (SI), MCF-7 ([2]; 24 h) | IC50 ([2]; 24 h treatment period) | Selectivity Index (SI), MCF-7 ([2]; 48 h) | IC50 ([2]; 48 h treatment period) | Selectivity Index (SI), MCF-7 ([2]; 72 h) | Selectivity Index (SI), SW480 ([3]; 48 h) | Selectivity Index (SI), SW480 ([3]; 72 h) | IC50 [1, 6] | IC50 [1, 7] | IC50 [1, 8] | IC50 [2, 9] | IC50 [2, 10] | Selectivity Index (SI), SW480 ([3]; 24 h) | IC50 [3, 11] | IC50 [3, 12] | IC50 [3, 13] | IC50 [2, 14] | also measured
1 | 1,4-bis((dipyrido[2,3-b:2′,3′-e][1,4]thiazin-10-yl)methyl)benzene [3b] | 20.8 ± 0.28 µM | 22.7 ± 0.29 µM | 22.15 ± 0.22 µM | 1.09 | 19 ± 1.23 µM | 0.81 | 28 ± 0.65 µM | 1.17 | 1.07 | 1.15 |  |  |  |  |  |  |  |  |  |  | IC50 [2, 5]: 18.89 ± 0.15 µM; IC50 ([3]; 24 h treatment period): 24.5 ± 0.26 µM; IC50 ([3]; 48 h treatment period): 21.19 ± 0.14 µM; IC50 ([3]; 72 h treatment period): 19.3 ± 0.12 µM
2 | COc1cccc2c1C(=O)c1c(O)c3c(c(O)c1C2=O)C[C@@](O)(C(=O)CO)C[C@@H]3O[C@H]1C[C@H](N)[C@H](O)[C@H](C)O1 [Doxorubicin, reference compound] |  |  |  | 0.41 |  | 0.25 |  |  | 0.63 | 0.28 | 11.5 ± 0.68 µM | 6.62 ± 0.18 µM | 3.07 ± 0.38 µM | 28.4 ± 0.36 µM | 24.6 ± 2.37 µM | 0.85 | 13.46 ± 0.11 µM | 10.44 ± 0.1 µM | 10.77 ± 0.07 µM |  | 
3 | 1,4-bis((dipyrido[2,3-b:2′,3′-e][1,4]thiazin-10-yl)methyl)benzene [4b] | 36.7 ± 1.03 µM | 30.8 ± 0.93 µM | 11.6 ± 0.47 µM | 1.23 | 29.7 ± 1.33 µM | 1.27 | 24.24 ± 0.17 µM | 0.45 | 1.16 | 0.54 |  |  |  |  |  | 1.21 |  |  |  |  | IC50 [2, 5]: 25.6 ± 0.35 µM; IC50 ([3]; 24 h treatment period): 29.1 ± 0.37 µM; IC50 ([3]; 48 h treatment period): 26.4 ± 0.74 µM; IC50 ([3]; 72 h treatment period): 21.41 ± 0.21 µM
4 | c1cnc2c(c1)Sc1ncccc1N2Cc1ccc(CN2c3cccnc3Sc3cccnc32)cc1 [1b, 1,4-bis((dipyrido[2,3-b:2′,3′-e][1,4]thiazin-10-yl)methyl)benzene] |  |  |  | 1.38 |  | 0.12 |  | 1.22 | 0.1 | 0.59 | 16 ± 0.36 µM | 1.92 ± 1.39 µM | 11.7 ± 0.59 µM | 11.6 ± 0.15 µM | 15.9 ± 0.83 µM | 0.55 | 28.7 ± 1.28 µM | 20.7 ± 1.22 µM | 19.8 ± 1.21 µM | 9.6 ± 0.46 µM | cytotoxicity towards MCF7 compared with SW480 (in words) [4]: higher cytotoxicity
5 | c1cc(CN2c3ccncc3Sc3ccncc32)nc(CN2c3ccncc3Sc3ccncc32)c1 [3c, 2,6-bis((dipyrido[3,4-b:3′,4′-e][1,4]thiazin-10-yl)methyl)pyridine] |  |  |  | 3.25 |  | 2.42 |  | 1.41 | 0.94 | 1.37 | 48.98 ± 0.33 µM | 28.4 ± 0.37 µM | 35.53 ± 0.04 µM | 15 ± 0.73 µM | 11.7 ± 0.38 µM | 2.19 | 22.3 ± 0.93 µM | 28.8 ± 1.55 µM | 25.9 ± 0.84 µM | 25.2 ± 1.74 µM | melting point: 245 to 247 °C
6 | c1ccc(CN2c3ccncc3Sc3ncccc32)c(CN2c3ccncc3Sc3ncccc32)c1 [4a, 1,2-bis((dipyrido[2,3-b:4′,3′-e][1,4]thiazin-5-yl)methyl)benzene] |  |  |  | 1.10 |  | 0.68 |  | 0.75 | 0.95 | 0.61 | 35.9 ± 0.57 µM | 22.9 ± 1.39 µM | 14.9 ± 1.15 µM | 32.7 ± 2.31 µM | 33.8 ± 1.46 µM | 1.56 | 23 ± 1.22 µM | 24.1 ± 0.66 µM | 24.4 ± 0.83 µM | 19.9 ± 2.36 µM | melting point: 302 to 303 °C

Source: article PMC10674446, “Synthesis and Structural Characterization of Novel Dimers of Dipyridothiazine as Promising Antiproliferative Agents” (Molecules, 2023)
